Assay results reported in EP0698347B1, “Food composition containing reuterin” (BIOGAIA BIOLOGICS AB, priority 1987, dated 1988).

Tests used:
[1] = system: E. coli; experiment: Co-culture of E. coli with and without L. reuteri 1063 on various substrates (Table 1); assay type: cell-based; set-up: % Inhibition: concentration or dose not given beside the values; details: for E. coli (CFU/ml) after 6 hours: substrate 20 mM (C6, C5) or 40 mM (C3), inoculum 5 x 10^6 CFU per ml E. coli
Protocol: (§1) Conditions under which reuterin is produced have been determined. Reuterin is not produced under aerobic conditions (atmospheric oxygen concentration) but under reduced oxygen tension. It is produced when L. reuteri is cultured anaerobically (or semi-anaerobically in still culture) in the MIC assay medium described above containing 20-500 mM glycerol or glyceraldehyde in place of glucose as the major carbon and energy source. […] Twenty other substances, including hexoses, hexitols, pentoses, pentitols, disaccharides and a variety of phosphorylated and non-phosphorylated C3-substances, were tested for their ability to support reuterin production. […] The medium, containing a substrate at 20 mM (C6 and C5 substrates) or 40 mM (C3 substrates) concentrations, was inoculated with 5 x 10^6 colony-forming units (CFU) per ml E. coli with and without L. reuteri. Only glycerol and glyceraldehyde yielded reuterin. Also, réuterin production from glycerol is inhibited when glucose or another growth substrate is included in the production medium. The results shown in Table 2 indicate the percent inhibition in viable count of a 6.7 x 10^7 CFU per ml E. coli inoculum by supernatant fractions of L. reuteri grown on various indicated substrates at 40 mM concentrations.

[2] = system: E. coli; experiment: Inhibition of E. coli by supernatant fractions of L. reuteri grown on various substrates (Table 2); assay type: cell-based
Protocol: as §1

[3] = system: spoilage pseudomonads; experiment: Fish fillet storage: spoilage bacteria count (Table 8); details: fish fillets dipped in treatment solution, 8°C for 4 days
Protocol: Lactobacillus reuteri plus glycerol constitutes a novel effective food preservation process. Evidence for this was obtained using storage of fish as a model system. This study was conducted as follows: Fish fillets (Herring, Clupea harengas) were dipped in the following treatment solution: • control: no treatment • glycerol: 250 mM glycerol solution • strain 1068: 250 mM glycerol solution containing 4x10^9 CFU per ml L. reuteri 1068 (a non-reuterin producing strain) • strain 1063: 250 mM glycerol solution containing 4x10^9 CFU per ml L. reuteri 1063 The fillets (2 parallel samples each) were kept in large Petri dishes at 8°C for 4 days in a refrigerator. The ammonia content and CFU of relevant bacteria (i.e., spoilage pseudomonads and added lactobacilli) were then analyzed to evaluate the shelf-life of the food product. […] L. reuteri 1068 did so to some extent but not enough to prevent spoilage which is generally indicated by a log 8.4 pseudomonad count. • (iii) the retarding effect of L. reuteri and glycerol on spoilage bacteria has a strong reducing effect on ammonia liberation. • (iv) a food preservative effect of L. reuteri plus glycerol is indicated for all kinds of food spoilage.

[4] = Antimicrobial activity of pure commercial preparations; assay type: cell-based; details: concentrations as high as 0.125M
Excerpt: Reuterin Is a Product of Glycerol Fermentation. Reuterin is a new product associated with the same type of heterolactic fermentation of glycerol that occurs in other Lactobacillus species. Reuterin can be isolated and identified as a product of glycerol fermentation by L. reuteri using HPLC.

**Q.** With `OCC(O)CO` [Glycerol] as the compound, how does the “E. coli (CFU/ml) after 6 hours” value ([1]; Addition of L. reuteri 1063: +) read?
**A.** 5.5x10^4 CFU/ml

**Q.** What about the “E. coli (CFU/ml) after 6 hours” value ([1]; Addition of L. reuteri 1063: -) of the same compound?
**A.** 1.2x10^7 CFU/ml

**Q.** What about the “% Inhibition” value ([1]; E. coli with versus without L. reuteri 1063 on the substrate, 6 hours) of the same compound?
**A.** 99%

**Q.** And the “% Inhibition” value ([2]; percent inhibition in viable count of 6.7 x 10^7 CFU per ml E. coli inoculum by supernatant fraction, substrate 40 mM)?
**A.** 99.9%

**Q.** And the “Growth of E. coli presence of centrifuged culture medium CFU/ml after 6 hours” value ([2]; supernatant fraction of L. reuteri grown on the substrate at 40 mM, inoculum 6.7 x 10^7 CFU per ml E. coli)?
**A.** 4.5x10^5 CFU/ml

**Q.** What about the “Log CFU bacteria per g Pseudomonads (kings agar)” value [3] of the same compound?
**A.** 9.4 Log CFU bacteria per g

**Q.** And the antimicrobial activity [4]?
**A.** essentially devoid of antimicrobial activity
